From patent publication US20240401146A1, “METHODS FOR PREDICTING AND IMPROVING THE EFFICACY OF MCL-1 INHIBITOR THERAPY” (INSTITUT NATIONAL DE LA SANTÉ ET DE LA RECHERCHE MÉDICALE, priority 2021, published 2024)
Like-named read-outs stand apart in the source and are kept apart here.

Legend:
[1] = system: SUDHL-4 cells (BTG1 KO, BTG1 WT); settings: SUDHL-4 BTG1 KO versus BTG1 WT; 72 h exposure; 0 or 50 nM; FIG. 3C
Description: (§1) TMD8 and SUDHL-4 were grown in Roswell Park Memorial Institute medium, GlutaMAX Supplement ([…], Thermofisher), supplemented with 10% FBS, 1% penicillin G/streptomycin. Cells were grown in incubators at 37 C, in a 5% CO2 atmosphere.
(§2) TMD8 and SUDHL-4 cells expressing cas9 were generated by transduction with lentiV-Cas9-blast virus (Addgene #125592, Massachusetts, USA), and selected with 2.5 μg/ml blasticidin for 7 days. […] Cells were selected with puromycin for 7 days, and GFP expression was evaluated with flow cytometry. BTG1 inactivation was validated by Western Blotting after 1 week. BTG1 rescue cell were derived from TMD8 BTG1 KO cells infected with murine BTG1 cDNA (100% protein homology with human) in a mcherry-HIV-based virus. GFP and mcherry positive cells were sorted on a FACS ARIA™ cell sorter (BD biosciences, San Jose, CA).
(§3) The high affinity MCL-1 specific inhibitor S63845 (Kotschy et al., 2016) was purchased from Selleck Chemical (München, Germany). For in vitro study, it was dissolved in DMSO at a concentration of lmmol/L. DMSO was also used as a vehicle control in the in vitro study. For cell viability assessment, 100 000 cells were seeded in 24 well plate and incubated for 72 h with either S63845 or DMSO. Culture medium was used for further dilutions (typically 5 and 50 nM). For cell viability assessment, cells were stained with Annexin V-APC and propidium iodide, analyzed on a FACS LSRII™ (BD biosciences, San Jose, CA).

[2] = system: TMD8 cells (BTG1 KO, WT, rescue, mutated rescues); settings: 72 h exposure, 0 or 50 nM, FIG. 3B
Description: as §1, §2, §3

SMILES: Cc1c(-c2c(-c3ccc(F)o3)sc3ncnc(O[C@H](Cc4ccccc4OCc4ccnn4CC(F)(F)F)C(=O)O)c23)ccc(OCCN2CCN(C)CC2)c1Cl [S63845]
- Proportion of apoptotic cells (Annexin V staining) [1]: confirmed the link between BTG1 inactivation and sensitivity to MCL-1
- Increased sensitivity to MCL-1 inhibitor (proportion of apoptotic cells, Annexin V staining) ([2]; TMD8 BTG1 KO rescued with BTG1 WT): abolished by the expression of BTG1 WT
- Increased sensitivity to MCL-1 inhibitor (proportion of apoptotic cells, Annexin V staining) ([2]; TMD8 BTG1 KO rescued with mutated BTG1 (L26P, G66D or I115V)): not by the expression of mutated BTG1
- Proportion of apoptotic cells (Annexin V staining) ([2]; TMD8 BTG1 KO versus BTG1 WT): induces significantly more apoptosis
